Experimental data from PMC10787225 (Computational and Structural Biotechnology Journal, 2023).
Entries after “also recorded” stand apart in the source; their conditions may differ. Where no end group is shown, it is not given here.

What was measured:
β-wrapin AS10 [1] = conditions: cited from earlier work
Source text: We have previously observed β-hairpins in amyloid-β (Aβ), α-synuclein (αSyn), and islet amyloid polypeptide (IAPP), amyloidogenic proteins associated with AD, PD, and T2D, respectively (Fig. 2), [38], [39]. These β-hairpins are established upon binding to engineered binding proteins termed β-wrapins. β-Wrapins are selected from protein libraries based on ZAβ3, an affibody with high affinity for monomeric Aβ [37], [39], [40], [41], [42]. β-Hairpin structures of Aβ, αSyn and IAPP have been determined by NMR spectroscopy of their complexes with ZAβ3 and the β-wrapins AS69 and ...

[2] = Thioflavin T (ThT) aggregation assay; type: physicochemical
Procedure: All ThT aggregation assays were done in Greiner 96-well half-area, clear bottom, low-binding plates. The measurements themselves were done in a BMG CLARIOstar plate reader at 37 °C and 300 rpm shaking in orbital mode with one glass bead (0.75–1 mm, Roth) per well. Wells with samples were always surrounded by wells filled with liquid, either other samples or 150 μl water, to counter potential artefacts due to evaporation. […] Final concentrations of 25 µM ThT and 0.04% sodium azide (NaN3) were added. The plate was sealed with sealing tape and put into the plate reader, heated to 37 °C, and ThT fluorescence was read in 1000 cycles of 300 s each using bottom optics with excitation at 448 nm (10 nm bandwidth) and emission at 482 nm (10 nm bandwidth). […] Samples contained 40 µM ThT and 0.04% NaN3.
Fig. 4 Test set of eight protein segments. (A) List of the investigated peptides. Underlined stretches in the peptide sequences correspond to the predicted amyloidogenic β-hairpins. A peptide was considered ‘soluble’ when no visible precipitation occurred upon dissolution of the lyophilized peptide in 20 mM NaPi, pH 7.4, 50 mM NaCl, to a final concentration of 20 µM. […] (B) Conformations of investigated segments (red) in the context of their source proteins.

β-wrapin AS10 [3] = assay: Isothermal titration calorimetry (ITC) of peptide binding to AS10; conditions: 30 °C, 30 µM AS10 in cell, peptide titrated from syringe, 20 mM sodium phosphate, pH 7.4, 50 mM NaCl, 1:1 binding model, read-out: Affinity to AS10 (dissociation constant KD)
Procedure: ITC was performed at 30 °C using a Microcal iTC200 calorimeter (GE Healthcare). AS10 was filled into the cell at a concentration of 30 µM in 20 mM sodium phosphate, pH 7.4, 50 mM NaCl. Peptides were titrated from the syringe in approximately 10-fold higher concentrations. Heats of post-saturation injections were averaged and subtracted from each injection to correct for heats of dilution and mixing. Dissociation constants were obtained from a nonlinear least-squares fit to a 1:1 binding model using MicroCal Origin.

[4] = Atomic force microscopy (AFM) of samples at the end of ThT aggregation assays; type: physicochemical
Procedure: (§1) For AFM imaging, 2 μl samples were taken out of the wells at the end of the ThT aggregation assays, put onto a freshly cleaved muscovite mica surface and dried during incubation for 10 min under the clean bench. Subsequently, the samples were washed with 100 μl ddH2O in three steps and dried with a stream of N2 gas. Imaging was performed in intermittent contact mode (AC mode) in a JPK NanoWizard 3 atomic force microscope using a silicon cantilever with silicon tip (OMCL-AC160TS-R3, Olympus) with a typical tip radius of 9 ± 2 nm, a force constant of 26 N/m and resonance frequency around 300 kHz. The images were processed using JPK DP Data Processing Software (version spm-5.0.84).

PAP(248−286) = assay: ThT aggregation assay and AFM of PAP(248−286) in presence of added peptide; type: biochemical, human
Procedure: (§2) All ThT aggregation assays were done in Greiner 96-well half-area, clear bottom, low-binding plates. The measurements themselves were done in a BMG CLARIOstar plate reader at 37 °C and 300 rpm shaking in orbital mode with one glass bead (0.75–1 mm, Roth) per well. Wells with samples were always surrounded by wells filled with liquid, either other samples or 150 μl water, to counter potential artefacts due to evaporation. […] Final concentrations of 25 µM ThT and 0.04% sodium azide (NaN3) were added. The plate was sealed with sealing tape and put into the plate reader, heated to 37 °C, and ThT fluorescence was read in 1000 cycles of 300 s each using bottom optics with excitation at 448 nm (10 nm bandwidth) and emission at 482 nm (10 nm bandwidth). […] PAP(248−286) and SEM1(86−107) were kept at constant concentrations of 500 and 300 µM, respectively. […] Samples contained 40 µM ThT and 0.04% NaN3.
as §1

SEM1(86−107) = assay: ThT aggregation assay and AFM of SEM1(86−107) in presence of added peptide; type: biochemical, human
Procedure: as §2, §1

In the case of “Aβ: amyloid-β, amyloidogenic protein associated with AD”, the “Affinity for β-wrapin AS10” value (β-wrapin AS10 [1]) is listed as “sub-micromolar”.
For KDFIATLGKLSGLHGQDLFGIWSK [PAP(185−208)], the “ThT fluorescence time course” value ([2]; 20–25 µM peptide, 20 mM NaPi, pH 7.4, 50 mM NaCl, 37 °C, 25 µM ThT, triplicate) was “no increase in fluorescence intensity was detected”, the “Peptide concentration sufficient for amyloid formation” value ([2]; ThT assay, Fig. 5D (550 µM, 20 mM NaPi, pH 7.4, 50 mM NaCl)) was > 0.5 mM and the ThT ([2]; peptide 20–550 µM, up to 85 h, 20 mM NaPi, pH 7.4, 50 mM NaCl, 37 °C, 300 rpm, glass bead, 25 µM ThT, triplicate) was “+”. The “ThT fluorescence of peptide alone” value ([2]; peptide alone 25–100 µM (up to 100 µM), 50 mM Tris, pH 8.5, 37 °C, 40 µM ThT) was “did not exhibit ThT fluorescence; also recorded: do not exhibit ThT fluorescene”, the “ThT fluorescence time course” value ([2]; peptide increased to 500–550 µM, 20 mM NaPi, pH 7.4, 50 mM NaCl, 37 °C, 25 µM ThT, triplicate) was “exhibited ThT fluorescence” and the Kd (β-wrapin AS10 [3]) was 39 ± 5 µM. The AFM aggregate morphology ([4]; end of ThT aggregation assay in 20 mM NaPi, pH 7.4, 50 mM NaCl, dried on mica) was “fibrillar aggregates confirming amyloid formation were detected”, the “AFM aggregate morphology of individual peptide” value ([4]; end of ThT assay at moderate peptide concentrations without ThT fluorescence, 50 mM Tris, pH 8.5) was “aggregates of amorphous shape” and the “Effect of added peptide on ThT time trace of PAP(248−286)” value (PAP(248−286); 500 µM PAP(248−286), added peptide 25–100 µM, 50 mM Tris, pH 8.5, 37 °C, 40 µM ThT) was “ThT time traces featuring a lag-time and a phase of rapid growth indicative of amyloid formation”. The “AFM morphology after co-incubation with PAP(248−286)” value (PAP(248−286); AFM at end of aggregation assay, 500 µM PAP(248−286) with PAP(185−208)) was “shift to fibrillar aggregate morphology”, the “Effect of added peptide on ThT time trace of SEM1(86−107)” value (SEM1(86−107); 300 µM SEM1(86−107), added peptide 25–100 µM, 50 mM Tris, pH 8.5, 37 °C, 40 µM ThT) was “ThT time traces featuring a lag-time and a phase of rapid growth indicative of amyloid formation” and the “AFM morphology after co-incubation with SEM1(86−107)” value (SEM1(86−107); AFM at end of aggregation assay, 300 µM SEM1(86−107) with PAP(185−208)) was “shift to fibrillar aggregate morphology”.
For “IAPP: islet amyloid polypeptide, amyloidogenic protein associated with T2D (KCNTATCATQRLANFLVHSSNNFGAILSSTNVGSNTY; Islet amyloid polypeptide; UniProt P10997 34-70, looked up)”, the “Affinity for β-wrapin AS10” value (β-wrapin AS10 [1]) is given as “sub-micromolar”.
